Experiments:
[1] = tested on: full thickness cartilage deficient rat models; experiment: Cartilage repair effect in full thickness cartilage deficient rat models; format: in vivo; conditions: 1.0 mmol/L, 50 μL intraarticular daily for 3 weeks from day 7 after operation
Method: A Kirschner wire with a 2.4 mm diameter (Mizuho Medical Instruments Corp.) was used to create a 2.5 mm-deep deficient area in the right femoral patellar surface, reaching to the marrow, in 10-week-old male CD rats (Nihon Charles River Co., Ltd.). From the seventh day after the operation, 50 μL of a 50% dimethylsulfoxide (DMSO) physiological saline solution as a solvent (DMSO: Junsei Chemical Corp.; physiological saline: Otsuka Pharmaceutical Corp.), or of a 1.0 mmol/L compound A solution, was administered into the right knee joint daily once a day for 3 weeks. The daily dosage of compound A was 81.7 μg.
On the day following the day of final administration, the right femur was taken, and fixed in 20% neutral buffered formaldehyde (Wako Pure Chemical Industries) for one week, and then demineralized for 2 weeks with 20% EDTA-4Na solution (pH 7.4, Wako Pure Chemical Industries), and the deficient area was trimmed with a razor (Feather Co., Ltd.). The trimmed area was subjected to paraffin blocking using an automatic embedding apparatus (Sakura Corp.) and paraffin (equivalent mixture of products by Kokusan Kagaku Corp. and Fisher Scientific Corp.). Here, a paraffin automatic dispensing embedding center (Miles Scientific Corp.) was used to fix each paraffin block in a tissue sample cassette (TISSUE-TEK Corp.)
Each paraffin block was cut into 2 μm-thick sections using a microtome (Daiwa Optical Instruments Corp.) and microtome knife (Feather Co., Ltd.), and then attached onto slide glass (Matsunami Glass Corp.) and dried. After drying, the sections were dipped in xylene to remove the paraffin, and then dipped in a step dilution series from ethanol to water and then stored in water. The sections were stained with 0.3% Safranin O (Merck Co.,.Ltd.) and observed with a microscope (magnification: 10× object lens), and a histological score was assigned according to a modification of the method of Wakitani et al. (J. Bone Joint Surg. 76-A, 579-592, 1994).

[2] = tested on: rat primary culture articular chondrocytes; experiment: Uptake of 3H-labeled thymidine (cell growth); format: cell-based; conditions: 10 μmol/L of compound, vs control solvent
Method: Articular chondrocytes were trimmed from the femoral knee joint of 6-week-old male SD rats (Nihon SLC Corp.) using a scalpel, and then digested in 0.3% collagenase (WORTHINGTON Corp.) and cultivated (Calcif. Tissue Int. 19:179-187,1975).
Uptake of ^3H-labeled thymidine (Amersham Corp.) was measured to determine the cell growth. For the measurement, the isolated articular chondrocytes were cultured in a 96-well cell culturing plate (FALCON Corp.) to a cell density of 10,000 per well. The medium used was an equivalent mixture of Dulbecco MEM containing fetal bovine serum (final concentration: 10%), 100 U/mL of penicillin (Meiji Seika Co., Ltd.) and 100 μg/mL of streptomycin (Banyu Pharmaceutical Corp.), and Ham F-12 medium (both by GIBCO Corp.). After 60-70% of the cells reached confluency, the medium was exchanged with one having a fetal bovine serum concentration of 0.3% and culturing was carried out overnight. On the following day, the medium was exchanged with the same type also containing compound A at a final concentration of 0.1, 1.0 or 10 μmol/L and 0.3% fetal bovine serum. […] The filter paper was soaked with plastic scintillator (Wallac Corp.), and the radioactivity was measured with a scintillation counter (Wallac Corp.). […]

With CCOC(CN1C(=O)[C@](CC(=O)Nc2ccc(C)cc2)(NC(=O)Nc2ccc(C)cc2)c2ccccc21)OCC [Compound A, (+)-1-(2,2-diethoxyethyl)-3-((4-methylphenyl)aminocarbonylmethyl)-3-(N′-(4-methylphenyl)ureido)indolin-2-one] the “repair of deficient areas (Safranin O staining)” value [1] was “exhibited repair in the Safranin O-positive cartilaginous tissue”, the “histological score: cell morphology” value ([1]; vs solvent alone) was “significant decrease” and the “histological score: thickness of cartilage” value ([1]; vs solvent alone) was “significant decrease”. For the same molecule, the histological total score ([1]; vs solvent alone) was “significant decrease” and the “uptake of 3H-labeled thymidine” value [2] was “significantly increased”.
